Measured values published in article PMC3842668, “Dual-acting stapled peptides target both HIV-1 entry and assembly” (Retrovirology, 2013).
Where a SMILES comes first, the peptide text is derived from it. Bridges are numbered along the chain shown (N, C = ends). Where no end group is shown, it is not given here. [ ]: non-standard residue; d: D form. R8 = C=CCCCCCC[C@@](C)(N)C(=O)O; S5 = C=CCCC[C@](C)(N)C(=O)O

Tests used:
[1] = not told; cited from earlier work
Text: In 2005, a 12-mer peptide (CAI), identified by phage-display, was reported to disrupt both immature- and mature-like particles in vitro by targeting the C-terminal domain (CTD) of HIV-1 CA [21]. […] Subsequently, we converted CAI to a cell-penetrating peptide (NYAD-1) by using a hydrocarbon stapling technique and confirmed its binding to the CTD [24]. NYAD-1, which is an i,i + 4 staple peptide, disrupts the formation of both immature- and mature-like particles in cell-free and cell-based assembly s ... || We previously reported that an i,i + 4 stapled peptide, NYAD-1, penetrates cells and disrupts virus assembly in both in vitro and cell-based assays. […] In addition, direct binding analyses by ITC and NMR confirmed that NYAD-1 binds to the CTD of CA. These findings motivated us to expand the scope of our drug discovery effort on hydrocarbon-stapled peptides as assembly and maturation inhibitors to an i,i + 7 series of stapled peptides. This approach allowed us to explore res ...

WT NL4-3 [2] = assay: Virus replication in PBMC, WT; type: cell-based, HIV-1; settings: PBMC from three donors, 30 μM peptide, RT activity
WT HIV-1 (NL4-3) = type: cell-based
HIV-1 CA [3] = target: T1, HIV-1 CA (Human immunodeficiency virus type 1 group M subtype B, UniProt P12493); assay: Turbidity-based in vitro CA assembly assay; type: biochemical; settings: turbidity at 350 nm
T1 construct: Wild-type HIV-1 CA was overexpressed and purified as previously described; made in house
Experimental: The ability of stapled peptides to disrupt CA-CA interactions was also assessed using a turbidity-based in vitro CA assembly assay. This assay is based on the observation that the turbidity of a CA-containing solution increases in proportion to the extent of assembly.
Wild-type HIV-1 CA was overexpressed and purified as previously described. […] Turbidity assays were carried out in triplicate using a Beckman spectrophotometer at a wavelength of 350 nm to monitor HIV-1 in vitro assembly conducted at ambient temperatures. Protein samples were prepared in an assembly buffer [50 mM NaPO4 pH 8.0]. In vitro assembly reactions were prepared with 250 μl of assembly buffer containing 60 μM protein. To catalyze CA assembly 250 μl of an assembly buffer containing 5M NaCl was added. The solution was mixed by agitation and transferred a cuvette for a total delay of 20 seconds. Assembly was monitored every 10 sec for the first min and every min thereafter for a total 10 min. Assembly reactions with stapled peptides were incubated in the assembly buffer for 10 min and then centrifuged for 1 min to separate any insoluble fractions before catalyzing assembly.

HIV-1 pNL4-3 (WT) = type: cell-based
HIV-1 pNL4-3 = assay: Virus assembly and release assay, Gag processing; type: cell-based; settings: 293T cells transfected with pNL4-3, peptide for 16–20 h, ratio of Pr55Gag to p24
Experimental: This inhibition was specific to HIV-1 as the release of another lentivirus, equine infectious anemia virus (EIAV), was not inhibited. In this study we investigated whether i,i + 7 stapled CAI-derived peptides have any effect on virus release. 293T cells were transfected with the full-length HIV-1 molecular clone pNL4-3, treated with stapled peptides for 16–20 h, and metabolically labeled with [^35S]Met/Cys. The cell- and virus-associated proteins were immunoprecipitated with HIV-Ig.
Figure 6 i + 7 stapled peptides have no effect on HIV-1 release, but impair Gag processing. […] Cells were metabolically labeled with [^35S]Met/Cys for 2 h. Cells were lysed and virions were collected by ultracentrifugation. Cell and virus lysates were immunoprecipitated with HIV-Ig and subjected to SDS-PAGE. Protein band intensities were quantified by phosphorimager analysis, and HIV-1 release was calculated as the amount of virion-associated p24 relative to total (cell- plus virion-associated) Gag. (b) Accumulation of unprocessed Gag in cells was measured by calculating the ratio of Pr55^Gag to p24 in cells. P values were calculated by Student’s t-test, with P < 0.05 considered significant. N = 3, ± SD.
293T cells, plated at 3 × 10^5 cells/well in 12 well plates, were transfected with the HIV-1 molecular clone pNL4-3 [69]. […] One day posttransfection, cells were metabolically labeled with [^35S]Met/Cys for 2 h. The labeled virions were pelleted in an ultracentrifuge, and the virus and cell lysates were immunoprecipitated with pooled sera from HIV-1-infected patients (HIV-Ig, obtained from the ARP) and subjected to SDS-PAGE. Protein band intensities were quantified by phosphorimager analysis, and virus release was calculated as the amount of virion-associated Gag as a fraction of total (cell- plus virion-associated) Gag synthesized during the metabolic labeling period. Accumulation of Pr55^Gag in cells was measured by calculating the ratio of Pr55^Gag to p24 (CA).

WT NL4-3 [4] = assay: Spreading virus replication in Jurkat T-cell line, RT activity, WT; type: cell-based, HIV-1
[5] = system: HIV-1 V120Q/A327P Env mutant; type: cell-based
V120Q/A327P mutant = assay: Virus replication in PBMC, Env mutant; type: cell-based, HIV-1; settings: PBMC from three donors, 30 μM peptide, RT activity
[6] = target: tip of V3 loop (15-mer V3 tip peptide); assay: ITC binding to 15-mer V3 tip peptide; design: species or system HIV-1; settings: 90 μM 15-mer V3 tip peptide titrated into 4.5 μM peptide, single-site model
Experimental: (§1) We also used ITC to measure the binding affinity of the stapled peptides to full-length cyclic V3 loop peptide.
(§2) Full-length V3 peptide (Cat# 1840), cyclic V3 peptide (Cat# 1837) and 15-mer overlapping V3 peptides (Cat# 1832, 6282, 6283, 6284, 6285, 6287, 6288, 6289, 6290 and 6291, for amino acid sequence see HIV-1 Subtype B (MN) Env Peptides - Complete Set Cat# 6451) were obtained through the NIH ARP.
(§3) For forward titration, 90 μM full-length V3 peptide, full-length cyclic V3 peptide or 90 μM 15-mer V3 peptides were titrated into 4.5 μM of stapled or linear peptides. Reference measurements were performed by titrating 90 μM full-length V3 peptide, full-length cyclic V3 peptide or 15-mer V3 peptide into buffer without peptide. For reverse titration, 90 μM stapled peptide was titrated into 4.5 μM full-length V3 peptide, full-length cyclic V3 peptide or […]. Reference measurements were performed by titrating 90 μM stapled peptide into buffer without peptide.

HIV-1 CA [7] = target: T1, HIV-1 CA; assay: In vitro CA assembly, negative-stain electron microscopy; type: biochemical; settings: 50 μΜ CA, 0.25- to 3.0-fold molar equivalent of peptide
Experimental: Briefly, stock proteins were adjusted to the appropriate concentration (25 μΜ for Gag protein or 50 μΜ for CA protein) with the Na2HPO4 buffer at pH 8.0. […] Negative staining was used to check the assembly. Carbon-coated copper grids (200 mesh size; EM Sciences) were treated with 20 μl of poly-L-lysine (1 mg/ml; Sigma) for 2 min. 20 μl of reaction solution was placed onto the grid for 2 min. Spotted grids were then stained with 30 μl of uranyl acetate solution for 2 min. Excess stain was removed, and grids were air-dried. Specimens were examined with a TECNAI G^2 electron microscope (FEI, OR, USA).

[8] = system: N-terminal and C-terminal V3 loop peptides; assay: ITC binding to N-terminal and C-terminal V3 loop peptides; design: species or system HIV-1; settings: overlapping 15-mer V3 peptides
Experimental: as §1, §2, §3

Compound | cell permeability (in words) [1] | CC 50 (μM ± SD) in MT-2 (MT-2 cells) [µM] | virus replication (in words) (WT NL4-3 [2]) | fold reduction of virus infectivity, WT (WT HIV-1 (NL4-3)) [fold] | Effect on CA assembly, turbidity (in words) (HIV-1 CA [3]; 50 mM NaPO4 pH 8.0) | initial rate of CA assembly (HIV-1 CA [3]; compound:CA ratio 2:1, mean ± standard deviation from three experiments, DMSO control 216 ± 6.23) [mOD/min] | reduction in infectivity of virions produced from treated cells (HIV-1 pNL4-3 (WT)) | Accumulation of cell-associated Pr55Gag (in words) (HIV-1 pNL4-3) | virus replication (in words) (WT NL4-3 [4]; Jurkat cells transfected with pNL4-3 (WT), 37.5 μM peptide) | virus replication (in words) (WT NL4-3 [4]; Jurkat cells transfected with pNL4-3, 25 μM peptide) | virus replication (in words) (WT NL4-3 [4]; Jurkat cells transfected with pNL4-3, 50 μM peptide) | fold reduction of virus infectivity, V120Q/A327P double mutant [5] | virus replication (in words) (V120Q/A327P mutant) | Cell penetration (in words) (293T cells) | Kd [6] [µM] | Effect on CA tube assembly, EM (in words) (HIV-1 CA [7]) | binding to N-terminal and C-terminal V3 loop peptides (in words) [8]
ITFEDLLDYYGP-NH2 [CAI, reference compound] | lack of cell permeability | >100 |  |  |  |  |  |  |  |  |  |  |  |  |  |  | 
CC[C@H](C)[C@H](NC(C)=O)C(=O)N[C@@H](CO)C(=O)N[C@@H](Cc1ccccc1)C(=O)N[C@]1(C)CCCCCCC=CCCC[C@@](C)(C(=O)N[C@@H](CCC(=O)O)C(=O)N[C@@H](CO)C(=O)NCC(=O)N[C@@H](CO)C(N)=O)NC(=O)[C@H](Cc2ccc(O)cc2)NC(=O)[C@H](Cc2ccc(O)cc2)NC(=O)[C@H](CC(=O)O)NC(=O)[C@H](CC(C)C)NC(=O)[C@H](CC(C)C)NC(=O)[C@H](CCC(=O)O)NC1=O [NYAD-36] (Ac-ISF[R8]ELLDYY[S5]ESGS-NH2; staple 4-11) |  | >189.4 | strongly inhibited replication of WT NL4-3 in PBMC | > 10 | reduced the extent of CA assembly in a dose-dependent manner | 158 ± 24.71 | four-fold | modest accumulation of cell-associated Pr55^Gag | significantly delayed | virus replication peaked approximately six days posttransfection | no replication was detected | ~ 2.5 fold | showed some antiviral activity against the V120Q/A327P mutant | penetrate cells less efficiently than NYAD-1 | 15.1 ± 3.78 | either severely damaged or disintegrated | neither N-terminal nor C-terminal V3 loop peptides bind
